Like-named read-outs stand apart in the source and are kept apart here.
Key:
BChE from human plasma [1] = target: T1, BChE from human plasma (Homo sapiens, UniProt P06276); conditions: Table 1; bisuracils 1a–f; read-out: IC50 BuChE; cited from earlier work
T1 construct: butyrylcholiesterase from human plasma; purchased Sigma-Aldrich; host or cells: human plasma

human AChE [2] = target: T2, human AChE (Homo sapiens, UniProt P22303); conditions: Table 1, bisuracils 1a–f, cited from earlier work; for AChE Selectivity: (IC50 BuChE)/(IC50 AChE)
T2 construct: purchased Sigma-Aldrich
T2 sequence (P22303 32-614): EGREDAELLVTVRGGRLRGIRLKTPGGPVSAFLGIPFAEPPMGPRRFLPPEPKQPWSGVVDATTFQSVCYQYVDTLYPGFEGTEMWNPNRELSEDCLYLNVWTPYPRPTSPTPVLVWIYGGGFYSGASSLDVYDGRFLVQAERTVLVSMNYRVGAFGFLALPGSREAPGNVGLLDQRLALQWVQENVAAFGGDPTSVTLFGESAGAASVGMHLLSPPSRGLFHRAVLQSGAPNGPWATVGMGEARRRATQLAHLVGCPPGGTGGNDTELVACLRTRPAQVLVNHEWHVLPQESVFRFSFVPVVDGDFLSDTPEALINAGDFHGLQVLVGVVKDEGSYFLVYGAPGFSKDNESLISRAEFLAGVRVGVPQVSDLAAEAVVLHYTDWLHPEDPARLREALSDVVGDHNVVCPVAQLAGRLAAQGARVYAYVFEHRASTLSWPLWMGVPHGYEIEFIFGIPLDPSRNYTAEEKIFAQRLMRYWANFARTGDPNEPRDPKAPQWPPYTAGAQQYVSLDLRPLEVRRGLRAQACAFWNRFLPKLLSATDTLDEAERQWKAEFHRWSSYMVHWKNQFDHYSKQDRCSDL

human AChE [3] = target: T2, human AChE; assay: In vitro cholinesterase inhibition (Ellman), AChE; assay type: biochemical; conditions: for IC50: read-out: IC50 AChE; for AChE Selectivity: (IC50 BuChE)/(IC50 AChE)
Method: (§1) Inhibitory activities of the tested compounds against AChE and BChE were measured according to Ellman et al.. Enzyme-catalysed hydrolysis of ATCHh was carried out at 25 °C in 0.1 M phosphate buffer (pH 8.0) containing 0.25 U AChE, 1 mM ATCHh as substrates, and 0.1 mM of DTNB. In experiments with BuChE, 0.1 M phosphate buffer (pH 7.0) and BuTChh as a substrate were used. The tested compounds were pre-incubated with the enzyme for two minutes prior to the addition of the substrate and the subsequent recording of hydrolysis kinetics. […] A sample without an inhibitor was used as a control (100% cholinesterase activity). A sample without a substrate was used as a blank. Experiments were performed in triplicate.

BChE from human plasma [4] = target: T1, BChE from human plasma; assay: In vitro cholinesterase inhibition (Ellman), BuChE; assay type: biochemical; conditions: read-out: IC50 BuChE
Method: as §1

[5] = system: mice poisoned with 2×LD50 of POX; assay: Protection against POX toxicity (pre-treatment); assay type: in vivo; conditions: for relative risk of death (RRD): Cox analysis over 10 h
Method: The concept of using reversible AChE inhibition as a preventive strategy to enhance the efficacy of traditional antidotes in OP poisoning is a well-established principle. This study explores the potential of bisuracil 2b as a preventive agent to protect AChE from irreversible inhibition caused by paraoxon (POX), a model OP. […] Following POX administration, the standard antidote atropine was given at a dose of 15 mg/kg within one minute. […] Increasing the dose of bisuracil 2b reduced the protective effect in POX poisoned animals (Table 3).
We also estimated the relative risk of death (RRD) as a function of precocity (from min to hours) over a period of 10 h by Cox survival analysis. Statistical differences in the number of surviving animals between experimental groups were tested using the Cox–Mantel multisample logarithmic rank criterion. It was shown that, in mice exposed to 0.42 mg/kg of POX, RRD = 1 (Figure 5). However, in animals that received atropine within 1 min after poisoning, POX-induced mortality was lower (RRD = 0.5; Figure 5).
The tested compound was administered via i.p. before POX injection.

[6] = system: scopolamine-induced amnesia in mice; assay: Novel object recognition test, scopolamine-induced amnesia; assay type: in vivo
Method: This study explored the ability of bisuracil 3c to counteract scopolamine-induced amnesia in mice, utilising behavioural assessments conducted through the novel object recognition test. […] The induction of amnesia was facilitated by the i.p. injection of scopolamine (1.5 mg/kg) 50 min prior to testing. […]. An equivalent amount of the vehicle was administered to a control group of mice.
The experiments were carried out on CD1 mice of both sexes weighing 24–25 g. The novel object recognition test was conducted over a period of three days. On the first day, the mice were placed individually into the square testing arena with black walls (50 cm in length, 50 cm in width, 38 cm in height) for 5 min without any objects. On the second day, two identical objects were placed in the central part of the arena, and the mice were allowed to explore the objects for 10 min. Test compounds were administered prior to testing on the second day. The induction of amnesia was facilitated by i.p. injection of scopolamine (1.5 mg/kg) 50 min prior to testing. Tested compounds were administered i.p. 30 min prior to testing. The control group of animals was administered with an equivalent amount of vehicle. On the third day, the mice were presented with a familiar and a novel object for 10 min. The time of exploration of each object by the mice was recorded using a digital camera. After each test, the arena was cleaned with a solution of 70% ethanol. At the end of the test, the preference index (exploration of novel object/total exploration time × 100) was calculated.

AChE = conditions: cited from earlier work
[7] = Table 1, recombinant human AChE, 25 °C, pH 8.0
[8] = Table 1, BChE from human plasma, pH 7.0

T1 sequence (P06276 29-602): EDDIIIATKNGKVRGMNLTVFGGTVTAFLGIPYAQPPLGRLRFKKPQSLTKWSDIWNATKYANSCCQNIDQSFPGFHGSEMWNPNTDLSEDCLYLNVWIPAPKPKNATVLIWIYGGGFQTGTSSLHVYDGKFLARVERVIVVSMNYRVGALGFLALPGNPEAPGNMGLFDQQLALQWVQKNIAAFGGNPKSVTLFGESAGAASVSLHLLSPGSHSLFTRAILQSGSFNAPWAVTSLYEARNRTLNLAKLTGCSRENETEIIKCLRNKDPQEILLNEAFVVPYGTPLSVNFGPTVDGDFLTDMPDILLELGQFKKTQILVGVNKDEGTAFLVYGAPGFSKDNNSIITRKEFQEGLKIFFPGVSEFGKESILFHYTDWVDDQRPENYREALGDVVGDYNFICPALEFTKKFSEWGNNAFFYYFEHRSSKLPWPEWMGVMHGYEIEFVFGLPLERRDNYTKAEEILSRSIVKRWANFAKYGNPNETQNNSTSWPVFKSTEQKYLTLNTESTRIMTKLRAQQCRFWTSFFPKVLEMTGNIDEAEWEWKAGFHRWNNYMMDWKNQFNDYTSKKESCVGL

**Q.** Which IC50 (BChE from human plasma [1]) does the source give for `CC[N+](CC)(CCCCCn1c(=O)ccn(CCCCCn2c(C)cc(=O)n(C)c2=O)c1=O)Cc1ccccc1[N+](=O)[O-]` [1a] here?
**A.** 40 µM

**Q.** What about the “AChE Selectivity” value (human AChE [2]) of the same molecule?
**A.** 112,676

**Q.** What about the IC50 (human AChE [2]) of the same molecule?
**A.** 0.0004 ± 3e-05 µM

**Q.** For `CC[N+](CC)(CCCCCn1c(=O)ccn(CCCCCCn2c(C)cc(=O)n(C)c2=O)c1=O)Cc1ccccc1[N+](=O)[O-]` [1b], which IC50 (BChE from human plasma [1]) is on record?
**A.** 6 ± 0.43 µM

**Q.** And the “AChE Selectivity” value (human AChE [2])?
**A.** 60,000

**Q.** And the IC50 (human AChE [2])?
**A.** 0.0001 ± 1e-05 µM

**Q.** Which IC50 (BChE from human plasma [1]) does the source give for `CC[N+](CC)(CCCCCn1c(=O)ccn(CCCn2c(C)cc(=O)n(C)c2=O)c1=O)Cc1ccccc1C(F)(F)F` [1c] here?
**A.** 440 µM

**Q.** And the “AChE Selectivity” value (human AChE [2])?
**A.** 220,000

**Q.** And the IC50 (human AChE [2])?
**A.** 0.002 ± 0.0002 µM

**Q.** What does the source list for `CC[N+](CC)(CCCCCn1c(=O)ccn(CCCCn2c(C)cc(=O)n(C)c2=O)c1=O)Cc1ccccc1C(F)(F)F` [1d]?
**A.** IC50 (BChE from human plasma [1]): 200 µM; AChE Selectivity (human AChE [2]): 200,000; IC50 (human AChE [2]): 0.001 ± 0.0001 µM

**Q.** With `CC[N+](CC)(CCCCCn1c(=O)ccn(CCCCCn2c(C)cc(=O)n(C)c2=O)c1=O)Cc1ccccc1C(F)(F)F` [1e] as the molecule, how does the IC50 (BChE from human plasma [1]) read?
**A.** 60 µM

**Q.** What about the “AChE Selectivity” value (human AChE [2]) of the same molecule?
**A.** 120,000

**Q.** And the IC50 (human AChE [2])?
**A.** 0.0005 ± 3e-05 µM

**Q.** Which results are given for `CC[N+](CC)(CCCCCn1c(=O)ccn(CCCCCCn2c(C)cc(=O)n(C)c2=O)c1=O)Cc1ccccc1C(F)(F)F` [1f]?
**A.** IC50 (BChE from human plasma [1]): 40 µM; AChE Selectivity (human AChE [2]): 200,000; IC50 (human AChE [2]): 0.0002 ± 1e-05 µM

**Q.** For `CC[N+](CC)(CCCCCn1c(=O)ccn(CCCn2c(C)cc(=O)n(C)c2=O)c1=O)Cc1ccccc1C#N` [2a, 1,3-{(3,6-Dimethyluracil-1-yl)-[3-(5-o-nitrilebenzyl(diethyl)ammonio)pentyl)-uracil-1-yl]}propane bromide], which IC50 (human AChE [3]; [7]) is on record?
**A.** 0.0003 ± 3e-05 µM

**Q.** And the IC50 (BChE from human plasma [4]; [8])?
**A.** 370 µM

**Q.** With `CC[N+](CC)(CCCCCn1c(=O)ccn(CCCCCn2c(C)cc(=O)n(C)c2=O)c1=O)Cc1ccccc1C#N` [2c, 1,5-{(3,6-Dimethyluracil-1-yl)-[3-(5-o-nitrilebenzyl(diethyl)ammonio)pentyl)-uracil-1-yl]}pentane bromide] as the molecule, how does the “AChE Selectivity” value (human AChE [3]; Table 1) read?
**A.** 388,888

**Q.** What about the IC50 (human AChE [3]; [7]) of the same molecule?
**A.** 0.0002 ± 6e-05 µM

**Q.** And the IC50 (BChE from human plasma [4]; [8])?
**A.** 70 µM

**Q.** With `CC[N+](CC)(CCCCCn1c(=O)ccn(CCCCCCn2c(C)cc(=O)n(C)c2=O)c1=O)Cc1ccccc1C#N` [2d, 1,6-{(3,6-Dimethyluracil-1-yl)-[3-(5-o-nitrilebenzyl(diethyl)ammonio)pentyl)-uracil-1-yl]}hexane bromide] as the molecule, how does the “AChE Selectivity” value (human AChE [3]; Table 1) read?
**A.** 57,034

**Q.** And the IC50 (human AChE [3]; [7])?
**A.** 0.0005 ± 0.00016 µM

**Q.** What about the IC50 (BChE from human plasma [4]; [8]) of the same molecule?
**A.** 30 µM

**Q.** Which results are given for `CCN(CCCCCn1c(=O)ccn(CCCn2c(C)cc(=O)n(C)c2=O)c1=O)Cc1ccccc1C#N` [3a]?
**A.** AChE Selectivity (human AChE [3]; Table 2): 11,290; IC50 (human AChE [3]; Table 2, human AChE): 0.0061 ± 0.0007 µM; IC50 (BChE from human plasma [4]; Table 2, human BuChE): 69.1 µM

**Q.** Which “AChE Selectivity” value (human AChE [3]; Table 2) does the source give for `CCN(CCCCCn1c(=O)ccn(CCCCn2c(C)cc(=O)n(C)c2=O)c1=O)Cc1ccccc1C#N` [3b] here?
**A.** 6090

**Q.** What about the IC50 (human AChE [3]; Table 2, human AChE) of the same molecule?
**A.** 0.0079 ± 0.00025 µM

**Q.** What about the IC50 (BChE from human plasma [4]; Table 2, human BuChE) of the same molecule?
**A.** 48.3 µM

**Q.** With `CCN(CCCCCn1c(=O)ccn(CCCCCCn2c(C)cc(=O)n(C)c2=O)c1=O)Cc1ccccc1C#N` [3d] as the molecule, how does the IC50 (human AChE [3]; Table 2, human AChE) read?
**A.** 0.0054 ± 0.0007 µM

**Q.** And the IC50 (BChE from human plasma [4]; Table 2, human BuChE)?
**A.** 95 µM

**Q.** With `CN1[C@@H]2CC[C@H]1C[C@@H](OC(=O)C(CO)c1ccccc1)C2` (stereo partly drawn) [Atropine, atropine, reference compound] as the molecule, how does the “n/N (mice surviving 5 days after POX poisoning / total)” value ([5]; atropine 15 mg/kg i.p. 1 min after POX 0.42 mg/kg i.p., no pre-treatment) read?
**A.** 6/12

**Q.** And the “relative risk of death (RRD)” value ([5]; atropine within 1 min after POX)?
**A.** 0.5

**Q.** With `COc1cc2c(cc1OC)C(=O)C(CC1CCN(Cc3ccccc3)CC1)C2` (stereo not drawn) [Donepezil, donepezil, reference compound] as the molecule, how does the “increase in the preference for the novel object compared to the scopolamine-treated group” value ([6]; donepezil 1 mg/kg i.p. 30 min prior to testing, scopolamine 1.5 mg/kg, p = 0.03) read?
**A.** 32.2%

**Q.** For `CCOP(=O)(OCC)Oc1ccc([N+](=O)[O-])cc1` [POX, paraoxon, reference compound], which “relative risk of death (RRD)” value ([5]; POX 0.42 mg/kg alone) is on record?
**A.** 1

**Q.** And the “n/N (mice surviving 5 days after POX poisoning / total)” value ([5]; POX 0.42 mg/kg i.p. (2×LD50) alone)?
**A.** 0/12

**Q.** With `COc1ccc2c3c1O[C@H]1C[C@@H](O)C=C[C@@]31CCN(C)C2` [galantamine] as the molecule, how does the “selectivity for AChE over BuChE” value (AChE) read?
**A.** 50 fold

**Q.** Which “inhibition profile (AChE vs BuChE)” value (AChE) does the source give for `CCN(C)C(=O)Oc1cccc([C@H](C)N(C)C)c1` [rivastigmine] here?
**A.** non-selective

**Q.** For `CN1[C@@H]2C[C@@H](OC(=O)[C@H](CO)c3ccccc3)C[C@H]1[C@@H]1O[C@@H]12` [scopolamine, reference compound], which “reduction of the preference for the novel object compared to the control group” value ([6]; scopolamine 1.5 mg/kg i.p. 50 min prior to testing, p = 0.0001) is on record?
**A.** 34.1%

Reference: article PMC12027946, “Ionic and Non-Ionic Counterparts Based on Bis(Uracilyl)Alkane Moiety with Highest Selectivity Towards Acetylcholinesterase for Protection Against Organophosphate Poisoning and Treating Alzheimer’s Disease” (International Journal of Molecular Sciences, 2025)
